For test [1], the target named is T1, module 2+TE ((5)M2+TE) (Saccharopolyspora erythraea, UniProt Q03131+Q03133).
T1 construct: The protein was, in each case, a single module of the DEBS PKS fused to the thioesterase (TE) termination region of module 6; first 39 amino acids of module 5 (N-ERL); made in house; host or cells: E. coli (BL21(DE3) with sfp)
The note with it: NAC thioester substrate, shown earlier; cited from earlier work.

The subject of test [2] is module 5+TE ((5)M5+TE). The note with it: NAC thioester substrate at saturating concentration, shown earlier; cited from earlier work.
The target of test [3] is T2, module 6+TE ((5)M6+TE) (Saccharopolyspora erythraea, UniProt Q03133, DEL53-1503).
T2 construct: The protein was, in each case, a single module of the DEBS PKS fused to the thioesterase (TE) termination region of module 6; first 39 amino acids of module 5 (N-ERL); made in house; host or cells: E. coli (BL21(DE3) with sfp)
As to conditions: NAC thioester substrate, shown earlier; cited from earlier work.

Test [4] deals with (5)M2+TE, (5)M5+TE, and (5)M6+TE. As to conditions: Wu et al. 2000; cited from earlier work.
The test system of test [5] is (5)M3+TE and (3)M3+TE. As to conditions: either module 3+TE derivative, previously shown; cited from earlier work.
Test [6] concerns DEBS module 3 ((3)M3+TE or (5)M3+TE). As to the kind of experiment: Substrate transfer and elongation assay, acceptor DEBS module 3. The test is classed as biochemical. As to conditions: 20 μM substrate; FIG. 27 A: diketide-ACP2(2)+(3)M3+TE; B: diketide-ACP2(4)+(3)M3+TE; C: diketide-ACP4(4)+(5)M3+TE; D: diketide-ACP4(4)+(3)M3+TE. The protocol:
(§1) Substrate transfer and elongation assays. Qualitative assays were performed with a diketide-ACP or diketide-PCP substrate either taken directly from the so phosphopantetheinlyation reaction or after further purification of the substrate. These assays were performed with 20 μM diketide-ACP/PCP substrate for 2 hours in the following reaction conditions: 1 μM acceptor module, 0.5 mM ^14C-methylmalonyl CoA, 4 mM NADPH in buffer C, 30° C. After quenching by addition of 250 μL EtOAc and vortexing, the products were extracted with 2×250 μL EtOAc, resolved on a silica gel TLC plate, and visualized on a Packard InstantImager.
The kinetics of substrate transfer at the module 2-module 3 interface followed by elongation and product release were examined as a function of the k60 μM and kcat/KM values of the overall reaction. […] In many cases, the k60μm values approximate the maximal overall turnover rates, as determined by back calculating the KM value for the reactions. True saturation kinetics were not practical because of the technical limitations (e.g., solubility) and limited supply associated with high molecular weight substrates such as diketide-ACP and diketide-PCP. kcat/KM values were determined by competitive assay of the substrate of interest against a substrate with a known kcat/KM value, as previously described (Wu, et al., (2001) J. Am. Chem. Soc. 123, 6465-6474). […]

Test [7] concerns DEBS module 5 ((5)M5+TE or (3)M5+TE). Put plainly: Substrate transfer and elongation assay, acceptor DEBS module 5. It counts as biochemical. The protocol:
as §1
(§2) The kinetics of substrate transfer at the module 2-module 3 interface followed by elongation and product release were examined as a function of the k60 μM and kcat/KM values of the overall reaction. The k60 μm values reported here represent the apparent overall rate of product formation at an initial substrate concentration of 60 μM. In many cases, the k60μm values approximate the maximal overall turnover rates, as determined by back calculating the KM value for the reactions. True saturation kinetics were not practical because of the technical limitations (e.g., solubility) and limited supply associated with high molecular weight substrates such as diketide-ACP and diketide-PCP. kcat/KM values were determined by competitive assay of the substrate of interest against a substrate with a known kcat/KM value, as previously described (Wu, et al., (2001) J. Am. Chem. Soc. 123, 6465-6474). […]
(§3) These reactions were quenched by the addition of 80 μL 12.5% SDS to 2 μL reaction mixture and immediate vortexing. […] After removing the organic solvents in vacuo, the residual products were then spotted onto a TLC plate (Baker-flex 250 uM silica gel), resolved in 60% EtOAc/40% hexanes, and the radioactive spots were visualized and quantified on a Packard InstantImager. […]

Test [8] has as its target T3, (5)M2+TE (Saccharopolyspora erythraea, UniProt Q03131+Q03133).
T3 construct: The protein was, in each case, a single module of the DEBS PKS fused to the thioesterase (TE) termination region of module 6; first 39 amino acids of module 5 (N-ERL); made in house; host or cells: E. coli (BL21(DE3) with sfp)
Put plainly: Substrate transfer and elongation assay, acceptor DEBS module 2. It counts as biochemical. The protocol:
as §1, §2, §3

In test [9] the target is T4, (5)M6+TE (Saccharopolyspora erythraea, UniProt Q03133, DEL53-1503).
T4 construct: The protein was, in each case, a single module of the DEBS PKS fused to the thioesterase (TE) termination region of module 6; first 39 amino acids of module 5 (N-ERL); made in house; host or cells: E. coli (BL21(DE3) with sfp)
Put plainly: Substrate transfer and elongation assay, acceptor DEBS module 6. The test is classed as biochemical. The method, then: as §1, §2, §3

The mark [10] stands for this setting: versus diketide-ACP4(4), stated jointly for modules 2 and 6.

The term kcat denotes the maximal rate divided by the concentration of active sites. Regarding `CCC(O)C(C)C(=O)SCCNC(C)=O` (stereo not drawn) [2a], the turnover number (kcat) in test [1] was 0.0767 s⁻¹; in [3], 0.283 s⁻¹. The “kcat (elongation rate constant)” value in [2] is 0.00417 s⁻¹. For the same molecule, the “qualitative turnover of NAC thioesters” value in test [4] is listed as “substrates for the three modules”. Moreover, the “qualitative incorporation of NAC thioesters” value in [5] is “readily incorporated and elongated”.

With “diketide-ACP4(Ø): diketide on isolated ACP4 domain without linker region”, the “qualitative transfer of diketide to module 3 (triketide lactone formation)” value in [6] was “not able to efficiently transfer substrates”. Besides, the “qualitative transfer of diketide to module 5 (triketide lactone formation)” value in test [7] (20 μM substrate, FIG. 28 A: diketide-ACP4(4)+(5)M5+TE, B: diketide-ACP4(4)+(3)M5+TE, C: diketide-ACP2(4)+(5)M5+TE, D: diketide-ACP2(2)+(5)M5+TE) was “Formation of the expected triketide lactone was observed”. For the same molecule, the k60μm is 0.27 min⁻¹ in [7] (acceptor (3)M5+TE, FIG. 29 B) and 0.49 min⁻¹ in test [7] (acceptor (5)M5+TE, FIG. 29 A). Moreover, in test [8] (20 μM substrate, 2 hours), the “qualitative transfer of diketide to (5)M2+TE” value is listed as “observed”. Moreover, the “drop of k60 μM when linker interactions are eliminated” value in [8] (setting [10]) and in [9] (setting [10]) was “approximately 10 fold” each time. The “drop of kcat/KM when linker interactions are eliminated” value in test [8] (setting [10]) and in test [9] (setting [10]) was 70-300 fold each time. The “qualitative transfer of diketide to (5)M6+TE” value in test [9] (20 μM substrate, 2 hours) is “observed”.

The values are drawn from patent US20060110789A1, “Methods to mediate polyketide synthase module effectiveness” (priority 2002, published 2006).
